Where a name gives a salt, the structure may show the parent alone.
Experiments:
Assay type in all cases: biochemical
Settings in all cases: concentration required to double the clotting time
[1] = test system: Human plasma; experiment: Human plasma anticoagulation, prothrombin time (PT)
Procedure: (§1) Dog plasma and rat plasma is obtained from conscious mixed-breed hounds (either sex, Hazelton-LRE, Kalamazoo, Mich., U.S.A.) or from anesthetized male Sprague-Dawley rats (Harlan Sprague-Dawley, Inc., Indianapolis, Ind., U.S.A.) by venipuncture into 3.8 percent citrate. Fibrinogen is prepared from in-date ACD human blood as the fraction I-2 according to previous procedures and specifications. […] Human fibrinogen is also purchased as 98 percent pure/plasmin free from American Diagnostica, Greenwich, Conn. Coagulation reagents ACTIN, Thromboplastin, and Human plasma are from Baxter Healthcare Corp., Dade Division, Miami, Fla. Bovine thrombin from Parke-Davis ([…], Mich.) is used for coagulation assays in plasma.
(§2) Coagulation assay procedures are as previously described. […] A CoAScreener coagulation instrument (American LABor, Inc.) is used for all coagulation assay measurements. The prothrombin time (PT) is measured by adding 0.05 mL saline and 0.05 mL Thromboplastin-C reagent to 0.05 mL test plasma. The activated partial thromboplastin time (APTT) is measured by incubation of 0.05 mL test plasma with 0.05 mL Actin reagent for 120 seconds followed by 0.05 mL CaCl2 (0.02M). The thrombin time (TT) is measured by adding 0.05 mL saline and 0.05 mL thrombin (10 NIH units/mL) to 0.05 mL test plasma. The compounds of Formula I are added to human or animal plasma over a wide range of concentrations to determine prolongation effects on the APTT, PT, and TT assays. Linear extrapolations are performed to estimate the concentrations required to double the clotting time for each assay.

[2] = test system: Human plasma; experiment: Human plasma anticoagulation, activated partial thromboplastin time (APTT)
Procedure: as §1, §2

[3] = test system: Human plasma; experiment: Human plasma anticoagulation, thrombin time (TT)
Procedure: as §1, §2

## 1-Piq-Pro-p-NHCH2 C6 H4 C(NH)NH2.2HCl [Example 18]
[1]
  2x Clotting time PT: 170 ng/mL
[2]
  2x Clotting time APTT: 79 ng/mL
[3]
  2x Clotting time TT: 7 ng/mL

## N=C(N)NC/C=C/CNC(=O)[C@@H]1CCCN1C(=O)[C@H](N)Cc1ccccc1 (relative stereo) [Example 8, D-Phe-Pro-NHCH2 -trans-CH=CHCH2 NHC(NH)NH2.HCl]
[3]
  2x Clotting time TT: 130 ng/mL

## NC[C@H]1CC[C@H](CNC(=O)[C@@H]2CCCN2C(=O)[C@H](N)Cc2ccccc2)CC1 (relative stereo) [Example 12, D-Phe-Pro-NHCH2 -trans-4-(aminomethyl)cyclohexane.HCl]
[3]
  2x Clotting time TT: 1,700 ng/mL

## CCS(=O)(=O)N[C@H](CC1CCCCC1)C(=O)N1CCC[C@H]1C(=O)NCCCCNC(=N)N [Example 2, EtSO2 -D-Cha-Pro-Agm.HCl]
[3]
  2x Clotting time TT: 170 ng/mL

## CCOC(=O)N[C@H](Cc1ccccc1)C(=O)N1CCC[C@H]1C(=O)NCCCCNC(=N)N [Example 3, EtOCO-D-Phe-Pro-Agm.HCl]
[3]
  2x Clotting time TT: 590 ng/mL

## N=C(N)NCCCCCCNC(=O)[C@@H]1CCCN1C(=O)[C@H](N)Cc1ccccc1 [Example 5, D-Phe-Pro-NH(CH2)6 NHC(NH)NH2.HCl]
[3]
  2x Clotting time TT: 30,000 ng/mL

## N=C(N)NCCCNC(=O)[C@@H]1CCCN1C(=O)[C@H](N)Cc1ccccc1 [Example 7, D-Phe-Pro-NH(CH2)3 NHC(NH)NH2.HCl]
[3]
  2x Clotting time TT: 490 ng/mL

## N=C(N)NCc1ccc(CNC(=O)[C@@H]2CCCN2C(=O)[C@H](N)Cc2ccccc2)cc1 [Example 9, D-Phe-Pro-p-NHCH2 -C6 H4 CH2 NHC(NH)NH2.2TFA]
[3]
  2x Clotting time TT: > 91,000 ng/mL

## NCc1ccc(CNC(=O)[C@@H]2CCCN2C(=O)[C@H](N)Cc2ccccc2)cc1 [Example 10, D-Phe-Pro-p-NHCH2 C6 H4 CH2 NH2.HCl]
[3]
  2x Clotting time TT: 420 ng/mL

## NCc1cccc(CNC(=O)[C@@H]2CCCN2C(=O)[C@H](N)Cc2ccccc2)c1 [Example 11, D-Phe-Pro-m-NHCH2 C6 H4 CH2 NH2.HCl]
[3]
  2x Clotting time TT: 8,800 ng/mL

## Nc1ccc(CNC(=O)[C@@H]2CCCN2C(=O)[C@H](N)Cc2ccccc2)cc1 [Example 13, D-Phe-Pro-p-NHCH2 C6 H4 NH2.HCl]
[3]
  2x Clotting time TT: 660 ng/mL

## Nc1ccc(CCNC(=O)[C@@H]2CCCN2C(=O)[C@H](N)Cc2ccccc2)cc1 [Example 14, D-Phe-Pro-p-NHCH2 CH2 C6 H4 NH2.HCl]
[3]
  2x Clotting time TT: 21,000 ng/mL

## N=C(N)c1cccc(CNC(=O)[C@@H]2CCCN2C(=O)[C@H](N)Cc2ccccc2)c1 [Example 16, D-Phe-Pro-m-NHCH2 C6 H4 C(NH)NH2.0.75HCl]
[1]
  2x Clotting time PT: 8,500 ng/mL
[2]
  2x Clotting time APTT: 8,600 ng/mL
[3]
  2x Clotting time TT: 650 ng/mL

## N=C(N)c1ccc(CNC(=O)[C@@H]2CCCN2C(=O)[C@H]2C[C@H]3CCCC[C@H]3CN2)cc1 [Example 19, D-3-Piq-Pro-p-NHCH2 C6 H4 C(NH)NH2.3HCl]
[1]
  2x Clotting time PT: 540 ng/mL
[2]
  2x Clotting time APTT: 300 ng/mL
[3]
  2x Clotting time TT: 58 ng/mL

## N=C(N)c1ccc(CNC(=O)[C@@H]2C[C@@H]3CCCC[C@@H]3N2C(=O)[C@H]2CCCCN2)cc1 [Example 20, D-hPro-Ohi-p-NHCH2 C6 H4 C(NH)NH2.3HCl]
[1]
  2x Clotting time PT: 600 ng/mL
[2]
  2x Clotting time APTT: 550 ng/mL
[3]
  2x Clotting time TT: 62 ng/mL

## CCS(=O)(=O)N[C@H](Cc1ccccc1)C(=O)N1CCC[C@H]1C(=O)NCc1cccc(C(=N)N)c1 [Example 24, EtSO2 -D-Phe-Pro-m-NHCH2 -C6 H4 C(=NH)NH2.HCl]
[1]
  2x Clotting time PT: 25,000 ng/mL
[2]
  2x Clotting time APTT: 25,900 ng/mL
[3]
  2x Clotting time TT: 1,000 ng/mL

## CCS(=O)(=O)N[C@H](Cc1ccccc1)C(=O)N1CCC[C@H]1C(=O)NCCc1cccc(C(=N)N)c1 [Example 27, EtSO2 -D-Phe-Pro-m-NHCH2 CH2 -C6 H4 C(=NH)NH2.HCl]
[1]
  2x Clotting time PT: 27,000 ng/mL
[2]
  2x Clotting time APTT: 27,800 ng/mL
[3]
  2x Clotting time TT: 1,940 ng/mL

## N=C(N)c1ccc(CCNC(=O)[C@@H]2CCCN2C(=O)[C@@H]2NCC[C@@H]3CCCC[C@@H]32)cc1 [Example 28, 1-Piq-Pro-p-NHCH2 CH2 -C6 H4 C(=NH)NH2.2HCl]
[1]
  2x Clotting time PT: 8,300 ng/mL
[2]
  2x Clotting time APTT: 8,100 ng/mL
[3]
  2x Clotting time TT: 520 ng/mL

## N=C(N)c1cccc(CCNC(=O)[C@@H]2CCCN2C(=O)[C@@H]2NCC[C@@H]3CCCC[C@@H]32)c1 [Example 29, 1-Piq-Pro-m-NHCH2 CH2 -C6 H4 C(=NH)NH2.2HCl]
[1]
  2x Clotting time PT: 15,800 ng/mL
[2]
  2x Clotting time APTT: 9,800 ng/mL
[3]
  2x Clotting time TT: 750 ng/mL

## CCS(=O)(=O)N[C@H](Cc1ccccc1)C(=O)N1CCC[C@H]1C(=O)NCCCc1ccc(C(=N)N)cc1 [Example 30, EtSO2 -D-Phe-Pro-p-NHCH2 CH2 CH2 -C6 H4 C(=NH)NH2.HCl]
[1]
  2x Clotting time PT: 14,400 ng/mL
[2]
  2x Clotting time APTT: 14,000 ng/mL
[3]
  2x Clotting time TT: 1,000 ng/mL

## CCS(=O)(=O)N[C@H](Cc1ccccc1)C(=O)N1CCC[C@H]1C(=O)NCCCc1cccc(C(=N)N)c1 [Example 31, EtSO2 -D-Phe-Pro-m-NHCH2 CH2 CH2 -C6 H4 C(=NH)NH2.HCl]
[1]
  2x Clotting time PT: 30,000 ng/mL
[2]
  2x Clotting time APTT: 34,500 ng/mL
[3]
  2x Clotting time TT: 10,800 ng/mL

## N=C(N)c1cccc(CCCNC(=O)[C@@H]2CCCN2C(=O)[C@@H]2NCC[C@@H]3CCCC[C@@H]32)c1 [Example 33, 1-Piq-Pro-m-NHCH2 CH2 CH2 -C6 H4 C(=NH)NH2.HCl]
[1]
  2x Clotting time PT: 70,900 ng/mL
[2]
  2x Clotting time APTT: 59,300 ng/mL
[3]
  2x Clotting time TT: 18,900 ng/mL

## CCS(=O)(=O)N[C@H](Cc1ccccc1)C(=O)N1CCC[C@H]1C(=O)NCCc1ccc(NC(=N)N)cc1 [Example 35, EtSO2 -D-Phe-Pro-p-NHCH2 CH2 C6 H4 CNH(NH)NH2.HCl]
[1]
  2x Clotting time PT: 78,400 ng/mL
[2]
  2x Clotting time APTT: 50,400 ng/mL
[3]
  2x Clotting time TT: 4,500 ng/mL

## CCS(=O)(=O)N[C@H](Cc1ccccc1)C(=O)N1CCC[C@H]1C(=O)NCc1cccc(NC(=N)N)c1 [Example 36, EtSO2 -D-Phe-Pro-m-NHCH2 C6 H4 NHC(NH)NH2.HCl]
[1]
  2x Clotting time PT: > 91,000 ng/mL
[2]
  2x Clotting time APTT: > 91,000 ng/mL
[3]
  2x Clotting time TT: 7,700 ng/mL

## N=C(N)Nc1ccc(CNC(=O)[C@@H]2CCCN2C(=O)[C@@H]2NCC[C@@H]3CCCC[C@@H]32)cc1 [Example 38, D-1-Piq-Pro-p-NHCH2 C6 H4 NHC(NH)NH2.2HCl]
[1]
  2x Clotting time PT: 11,100 ng/mL
[2]
  2x Clotting time APTT: 6,100 ng/mL
[3]
  2x Clotting time TT: 540 ng/mL

## N=C(N)Nc1ccc(CCNC(=O)[C@@H]2CCCN2C(=O)[C@@H]2NCC[C@@H]3CCCC[C@@H]32)cc1 [Example 39, D-1-Piq-Pro-p-NHCH2 CH2 C6 H4 NHC(NH)NH2.2HCl]
[1]
  2x Clotting time PT: 78,600 ng/mL
[2]
  2x Clotting time APTT: 69,200 ng/mL
[3]
  2x Clotting time TT: 5,300 ng/mL

## N=C(N)Nc1cccc(CNC(=O)[C@@H]2CCCN2C(=O)[C@@H]2NCC[C@@H]3CCCC[C@@H]32)c1 [Example 40, D-1-Piq-Pro-m-NHCH2 C6 H4 NHC(NH)NH2.2HCl]
[1]
  2x Clotting time PT: > 91,000 ng/mL
[2]
  2x Clotting time APTT: > 91,000 ng/mL
[3]
  2x Clotting time TT: 35,100 ng/mL

## N=C(N)Nc1cccc(CCNC(=O)[C@@H]2CCCN2C(=O)[C@@H]2NCC[C@@H]3CCCC[C@@H]32)c1 [Example 41, D-1-Piq-Pro-m-NHCH2 CH2 C6 H4 NHC(NH)NH2.2HCl]
[1]
  2x Clotting time PT: > 91,000 ng/mL
[2]
  2x Clotting time APTT: > 91,000 ng/mL
[3]
  2x Clotting time TT: 82,200 ng/mL

## O=C(O)CN[C@H](CC1CCCCC1)C(=O)N1CCC[C@H]1C(=O)NCC1CCNCC1 [Example 53, HO2 CCH2 -D-Cha-Pro-4-NHCH2 -piperidine.HCl]
[1]
  2x Clotting time PT: 34,500 ng/mL
[2]
  2x Clotting time APTT: 33,800 ng/mL
[3]
  2x Clotting time TT: 1,400 ng/mL

## O=C(O)CN[C@H](CC1CCCCC1)C(=O)N1CCC[C@H]1C(=O)NCCC1CCNCC1 [Example 54, HO2 CCH2 -D-Cha-Pro-4-NHCH2 CH2 -piperidine.HCl]
[1]
  2x Clotting time PT: 2,200 ng/mL
[2]
  2x Clotting time APTT: 3,300 ng/mL
[3]
  2x Clotting time TT: 140 ng/mL

## O=C(O)CN[C@H](CC1CCCCC1)C(=O)N1CCC[C@H]1C(=O)NCCCC1CCNCC1 [Example 55, HO2 CCH2 -D-Cha-Pro-4-NHCH2 CH2 CH2 -piperidine.HCl]
[1]
  2x Clotting time PT: > 91,000 ng/mL
[2]
  2x Clotting time APTT: > 91,000 ng/mL
[3]
  2x Clotting time TT: 55,800 ng/mL

## Nc1ccc(CNC(=O)[C@@H]2CCCN2C(=O)[C@@H](CC2CCCCC2)NCC(=O)O)cc1 [Example 62, HO2 CCH2 -D-Cha-Pro-4-NHCH2 C6 H4 NH2.HCl]
[3]
  2x Clotting time TT: 54 ng/mL

## Nc1ccc(CCNC(=O)[C@@H]2CCCN2C(=O)[C@@H](CC2CCCCC2)NCC(=O)O)cc1 [Example 63, HO2 CCH2 -D-Cha-Pro-4-NHCH2 CH2 C6 H4 NH2.HCl]
[3]
  2x Clotting time TT: 680 ng/mL

## D-Phe-Pro-p-NHCH2 C6 H4 C(NH)NH2.HCl [Example 15]
[2]
  2x Clotting time APTT: 89 ng/mL
[3]
  2x Clotting time TT: 9 ng/mL

Source: US5726159A, “Antithrombotic agents” (Eli Lilly and Company, priority 1995, dated 1998)
